According to patent publication US7615366B2, “Bacillus amyloliquefaciens KTGB0202 and control method of plant pathogenic fungi using that” (KT & G Co., Ltd., priority 2003, dated 2009):

Assays:
melon powdery mildew = assay: Control effect against melon powdery mildew; conditions: 4000-fold-diluted concentration (control chemicals)
Text: The bacteria culture was spread to melons with a powdery mildew incidence of about 10% under greenhouse conditions three times at one-week intervals, and after 7 days, the results were examined.
Trifumin® and Fenari® (Fenarimol) were used at a 4000-fold-diluted concentration, a recommended concentration for farmhouses.
The number of leaves with melon powdery mildew was counted before and after treatment so as to yield therapeutic effects.

cucumber powdery mildew = assay: Control effect against cucumber powdery mildew; conditions: 4000-fold-diluted concentration (control chemical)
Text: Also, Trifumin® (Triflumizole) was used at a 4000-fold-diluted concentration, a recommended concentration for farmhouses.

Compound: OC(c1ccc(Cl)cc1)(c1cncnc1)c1ccccc1Cl (stereo not drawn) [Fenari ® (Fenarimol), Fenarimol]
- Number of infected leaves before treatment/number of infected leaves after treatment (melon powdery mildew): 9/6
- Therapeutic effect (melon powdery mildew): 33.4

Compound: CCCOC/C(=N\c1ccc(Cl)cc1C(F)(F)F)n1ccnc1 [Trifumin ® (Triflumizole), Triflumizole]
- Number of infected leaves before treatment/number of infected leaves after treatment (melon powdery mildew): 10/0
- Therapeutic effect (melon powdery mildew): 100
- Control effect (%) (cucumber powdery mildew): 96.59%
- Incidence (%) (cucumber powdery mildew): 3.41%
